Data reported in patent US5300672A (priority 1992, dated 1994).
Like-named read-outs stand apart in the source and are kept apart here.

Legend:
[1] = system: Pseudoperonospora cubensis; test: whole plant or invertebrate; type: in vivo; details: Pseudoperonospora cubensis, in Cucumis sativus, 168 h; read-out: % Control CDM
Piricularia oryzae = test: whole plant or invertebrate; type: in vivo; details: for pest or weed control at 200 ppm: read-out: % Control RB, application rate 200 ppm; for pest or weed control at 100 ppm: read-out: % Control RB, application rate 100 ppm; for % Control RB: in vivo
Phytophthora infestans = test: whole plant or invertebrate; type: in vivo
[2] = system: Erysiphe graminis (f. sp. tritici); test: whole plant or invertebrate; type: in vivo; details: for pest or weed control at 200 ppm / pest or weed control at 100 ppm / pest or weed control at 12 ppm: Blumeria graminis, read-out: % Control WPM; for % Control WPM: in vivo
[3] = system: Puccinia recondita (f. sp. tritici Races PKB and PLD); test: whole plant or invertebrate; type: in vivo; details: for pest or weed control at 200 ppm / pest or weed control at 100 ppm: Puccinia recondita, 240 h, read-out: % Control WLR; for % Control WLR: in vivo
Pseudomonas fluorescens = test: Alternate Minimum Inhibitory Concentrations Test (Table 4), Ps.fl; type: cell-based; details: Table 4 alternate test; for MIC: Pseudomonas fluorescens, read-out: MIC Ps.fl; for MIC / MIC Ps.fl: 250 ppm to 0.8 ppm in TSB, 72 hours, 30° C.
Protocol: The compounds of Examples 1-8, 12-26, 28-33, 36-37, 39-42, 44-109, 111-114, and 116-120 were subjected also to the following alternate biocidal activity test procedures with the results as indicated in Table 4.
The MIC test measures the viability of Pseudomonas fluorescens inoculum in TSB when exposed for 72 hours to varying concentrations of test compound.
A 125 μl aliquot of 10,000 ppm test compound in acetone was added to 4.88 ml of TSB to provide a 250 ppm solution. From this solution, 100 μL was transferred to the first row of two microtiter plate columns. Both replicates and five additional compounds were all serially diluted 1:1 to a final concentration of 0.8 ppm in TSB.
Inoculation was accomplished by diluting a 24 hr Ps fl culture, four mls per 36 mls of phosphate buffer solution. A Dynatech autoinoculator was used to transfer 1.5 μl of this cell suspension to the microtiter plates. The plates were incubated at 30° C. for 3 days before the lowest concentration at which no growth occurs was recorded in the database.

[4] = system: Pellicularia filamentosa (f. sp. sasiki); test: whole plant or invertebrate; type: in vivo; details: for pest or weed control at 100 ppm / pest or weed control at 200 ppm: 120 h, read-out: % Control RSB; for % Control RSB: in vivo
[5] = Phytophthora infestans, in Solanum lycopersicum, 96 h, read-out: % Control TLB
[6] = Phytophthora infestans, in Solanum lycopersicum, 96 h, read-out: % Control TLB, application rate 200 ppm
[7] = Phytophthora infestans, in Solanum lycopersicum, 96 h, read-out: % Control TLB, application rate 100 ppm

Compound | pest or weed control at 200 ppm (Piricularia oryzae; Pyricularia oryzae) [%] | pest or weed control at 200 ppm [2] [%] | pest or weed control at 200 ppm [3] [%] | MIC (Pseudomonas fluorescens) [mg/L] | pest or weed control at 100 ppm (Piricularia oryzae; Pyricularia oryzae) [%] | pest or weed control at 100 ppm [4] [%] | pest or weed control at 100 ppm [2] [%] | pest or weed control at 100 ppm [3] [%] | also measured
CCCCCCCCNC(=O)/C=C\SC(=O)CCCCCCC(=O)OC [Compound 110, N-octyl-cis-3-[(7-methoxycarbonylheptanoyl)thio]acrylamide] | 75 | 0 | 0 |  |  |  |  |  | pest or weed control at 200 ppm [1]: 70%; pest or weed control at 200 ppm (Phytophthora infestans; [5]): 90%
CCCCCCCCNC(=O)/C=C\SC(=O)c1cc([N+](=O)[O-])ccc1[N+](=O)[O-] [Compound 107, N-octyl-cis-3-[(2,5-dinitrobenzoyl)thio]acrylamide] | 0 | 50 | 0 | > 250 |  |  |  |  | pest or weed control at 200 ppm [1]: 0%; pest or weed control at 200 ppm (Phytophthora infestans; [6]): 0%
CCCCCCCCNC(=O)/C=C\SC(=O)c1ccc(Cl)cc1Cl [Compound 100, N-octyl-cis-3-[(2,4-dichlorobenzoyl)thio]acrylamide] | 0 | 50 | 0 | > 250 |  |  |  |  | pest or weed control at 200 ppm [1]: 50%; pest or weed control at 200 ppm (Phytophthora infestans; [6]): 0%
CCCCCCCCNC(=O)/C=C\SC(=O)c1ccc(C)cc1 [Compound 106, N-octyl-cis-3-[(4-methylbenzoyl)thio]acrylamide] | 0 | 0 | 0 | > 250 |  |  |  |  | pest or weed control at 200 ppm [1]: 50%; pest or weed control at 200 ppm (Phytophthora infestans; [6]): 0%
CCCCCCCCNC(=O)/C=C\SC(=O)CCCCC(=O)OC [Compound 118, N-octyl-cis-3-[(5-methoxycarbonylpentanoyl)thio]acrylamide] | 75 | 0 | 0 |  |  |  |  |  | pest or weed control at 200 ppm [1]: 100%; pest or weed control at 200 ppm (Phytophthora infestans; [5]): 90%; MIC Ps.fl (I = inactive) (Pseudomonas fluorescens; class symbol): I
CCCCCCCCNC(=O)/C=C\SC(=O)c1cnccc1Cl [Compound 108, N-octyl-cis-3-[(4-chloro-3-pyridine)carbonylthio]acrylamide] | 0 | 0 | 0 | > 250 |  |  |  |  | pest or weed control at 200 ppm [1]: 90%; pest or weed control at 200 ppm (Phytophthora infestans; [5]): 90%
CCCCCCCCNC(=O)/C=C\SC(=O)CCl [Compound 31, N-octyl-cis-3-(chloroacetylthio)acrylamide] |  |  |  | > 250 | 0 | 0 | 0 | 0 | pest or weed control at 100 ppm (Phytophthora infestans; [5]): 80%
CCCCCCCCNC(=O)/C=C\SC(=O)c1ccccc1 [Compound 1, N-octyl-cis-3-(benzoylthio)acrylamide] |  |  |  | > 250 | 0 | 0 | 0 | 0 | pest or weed control at 100 ppm (Phytophthora infestans; [7]): 100%
CCCCCCCCNC(=O)/C=C\SC(=O)c1ccoc1 [Compound 62, N-octyl-cis-3-(3-furoylthio)acrylamide] | 0 |  |  | > 250 |  |  |  | 0 | pest or weed control at 200 ppm [4]: 0%; pest or weed control at 200 ppm (Phytophthora infestans; [5]): 90%; pest or weed control at 12 ppm [2]: 50%
CCCCCCCCNC(=O)/C=C\SC(=O)c1cnc2ccccc2c1 [Compound 72, N-octyl-cis-3-[(3-quinoline)carbonylthio]acrylamide] | 0 | 0 | 0 | > 250 |  |  |  |  | pest or weed control at 200 ppm [4]: 50%; pest or weed control at 200 ppm (Phytophthora infestans; [5]): 90%
CCCCCCCCNC(=O)/C=C\SC(=O)N1CCCC1 [Compound 32, N-octyl-cis-3-[(1-pyrrolidine)carbonylthio]acrylamide] |  |  |  | > 250 | 0 | 0 | 0 | 0 | pest or weed control at 100 ppm (Phytophthora infestans; [5]): 80%
CCCCCCCCNC(=O)/C=C\SC(=O)c1c(Cl)cccc1Cl [Compound 21, N-octyl-cis-3-[(2,6-dichlorobenzoyl)thio]acrylamide] |  |  |  | > 250 | 0 | 0 | 0 | 0 | pest or weed control at 100 ppm (Phytophthora infestans; [5]): 80%
CCCCCCCCNC(=O)/C=C\SC(=O)/C=C/c1cccs1 [Compound 66, N-octyl-cis-3-[(trans-3-(2-thiophene)propenoyl)thio]acrylamide] |  | 0 | 0 | > 250 |  |  |  |  | pest or weed control at 50 ppm (Piricularia oryzae; Pyricularia oryzae, read-out: % Control RB, application rate 50 ppm): 50%; pest or weed control at 200 ppm [4]: 0%; pest or weed control at 200 ppm (Phytophthora infestans; [5]): 90%
CCCCCCCCNC(=O)/C=C\SC/C=C/c1ccccc1 [Compound 13, N-octyl-cis-3-[(trans-3-phenylprop-2-ene)thio]acrylamide] |  |  |  | > 250 | 0 | 0 | 0 | 0 | pest or weed control at 100 ppm (Phytophthora infestans; [5]): 80%
CCCCCCCCNC(=O)/C=C\SC(=O)c1cc2ccccc2s1 [Compound 19, N-octyl-cis-3-[(2-benzo(6)thiophene)carbonylthio]acrylamide] |  |  |  | > 250 | 0 | 0 | 0 | 0 | pest or weed control at 100 ppm (Phytophthora infestans; [5]): 90%
CCCCCCCCNC(=O)C=CSC(CO)COc1ccc(OC)cc1 (stereo not drawn) [Compound 39, N-octyl-cis-3-[(1-hydroxy-3-(4-methoxyphenoxy)-2-propane)thio]acrylamide] |  |  |  |  |  |  |  |  | % Control RB (Piricularia oryzae): 80 % Control; % Control RSB [4]: 0 % Control; % Control TLB (Phytophthora infestans; application rate 100 ppm): 0 % Control; MIC Ps.fl (Pseudomonas fluorescens): > 250 Ppm; % Control WPM [2]: 0 % Control; % Control WLR [3]: 0 % Control
CCCCCCCCNC(=O)/C=C\SC(=O)c1cccc(OC)c1 [Compound 8, N-octyl-cis-3-[(3-methoxybenzoyl)thio]acrylamide] |  |  |  | > 250 | 80 | 0 | 0 | 0 | pest or weed control at 100 ppm (Phytophthora infestans; [5]): 80%
CCCCCCCCNC(=O)/C=C\SC(=O)c1c(F)cc(F)cc1F [Compound 28, N-octyl-cis-3-[(2,4,6-trifluorobenzoyl)thio]acrylamide] |  |  |  | > 250 | 90 | 0 | 0 | 0 | pest or weed control at 100 ppm (Phytophthora infestans; [7]): 0%
CCCCCCCCNC(=O)/C=C\SC(=O)C(Cl)Cl [Compound 37, N-octyl-cis-3-(dichloroacetylthio)acrylamide] |  |  |  | > 250 |  | 0 | 0 | 0 | pest or weed control at 25 ppm (Piricularia oryzae; Pyricularia oryzae, read-out: % Control RB, application rate 25 ppm): 80%; pest or weed control at 6 ppm (Phytophthora infestans; [5]): 90%
C=CC(=O)S/C=C\C(=O)NCCCCCCCC [Compound 71, N-octyl-cis-3-(propenoylthio)acrylamide] | 0 |  | 0 | > 250 |  |  |  |  | pest or weed control at 200 ppm [4]: 0%; pest or weed control at 200 ppm (Phytophthora infestans; [6]): 100%; pest or weed control at 12 ppm [2]: 50%
N-octyl-cis-3-[(3-cyanobenzoyl)thio]acrylamide [Compound 67] |  |  |  |  |  |  |  |  | % Control RB (Piricularia oryzae): 0 % Control; % Control RSB [4]: 0 % Control; % Control TLB (Phytophthora infestans; application rate 200 ppm): 95 % Control; MIC Ps.fl (Pseudomonas fluorescens): > 250 Ppm; % Control WPM [2]: 0 % Control; % Control WLR [3]: 0 % Control
CCCCCCCCNC(=O)/C=C\SC(=O)COCC [Compound 60, N-octyl-cis-3-(ethoxyacetylthio)acrylamide] | 50 | 0 | 25 | > 250 |  |  |  |  | pest or weed control at 200 ppm [4]: 0%; pest or weed control at 200 ppm (Phytophthora infestans; [6]): 95%
CCCCCCCCNC(=O)/C=C\SC(=O)CCOc1ccccc1 [Compound 79, N-octyl-cis-3-[(3-phenoxypropanoyl)thio]acrylamide] | 0 | 0 | 0 | > 250 |  |  |  |  | pest or weed control at 200 ppm [4]: 0%; pest or weed control at 200 ppm (Phytophthora infestans; [6]): 100%
